Where two headings read alike, the source gives them in different places.
How the values were obtained:
HIV-1 IIIB = experiment: Luciferase activity assay of HIV-1 infectivity in TZM-bl cells; type: cell-based; details: read-out: Anti-HIV EC50
hCXCR4 = hCXCR4 (Homo sapiens, UniProt P61073); experiment: Radioligand [125I]SDF-1α binding to hCXCR4-transfected HEK293 membrane; details: for fold increase in CXCR4 binding affinity compared to compound 4: relative to compound 4; for fold decrease in CXCR4 binding affinity compared to compound 18: relative to compound 18; for fold decrease in CXCR4 binding compared to compound 25: relative to compound 25
Cytotoxicity assay [1] = type: cell-based, human; details: human, CEM cells (T-lymphoblast leukemia)
Cytotoxicity assay [2] = type: cell-based; details: human, TZM-bl cells
CEM cells = experiment: Cytotoxicity assay; type: cell-based, human; details: for CC50: read-out: Cytotoxicity CC50 CEM, CEM cells, 72 h
TZM-bl cells = experiment: Cytotoxicity assay; type: cell-based; details: for CC50: read-out: Cytotoxicity CC50 TZM-bl, TZM-bl cells, 72 h
[3] = TZM-bl cells, HIV-1 IIIB, M.O.I. 1

Chain of hCXCR4 (P61073 whole entry): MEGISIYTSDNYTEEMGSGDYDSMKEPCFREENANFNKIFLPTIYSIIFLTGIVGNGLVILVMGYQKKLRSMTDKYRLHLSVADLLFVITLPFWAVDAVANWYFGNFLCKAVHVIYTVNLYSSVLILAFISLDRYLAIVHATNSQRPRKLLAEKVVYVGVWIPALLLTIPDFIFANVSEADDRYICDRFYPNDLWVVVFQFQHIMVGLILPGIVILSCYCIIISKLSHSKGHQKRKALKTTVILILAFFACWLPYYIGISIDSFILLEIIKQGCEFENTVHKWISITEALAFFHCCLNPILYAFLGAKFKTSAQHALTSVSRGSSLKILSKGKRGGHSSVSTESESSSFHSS

| SMILES | CC50 at 72 h (Cytotoxicity assay [1]) | selectivity ratio at 72 h (Cytotoxicity assay [1]) | CC50 at 72 h (Cytotoxicity assay [2]) | selectivity ratio at 72 h (Cytotoxicity assay [2]) | other results |
| --- | --- | --- | --- | --- | --- |
| c1cc(CN2CCCNCCNCCCNCC2)ccc1CN1CCCNCCNCCCNCC1 [AMD3100, reference compound] | – | – | – | – | EC50 (HIV-1 IIIB; Human immunodeficiency virus 1, IIIB, TZM-bl): 0.0666 ± 0.0231 µM |
| COc1ccc2nc(NCc3ccc(CNCCCNC4CCCCC4)cc3)nc(NC3CCNCC3)c2c1 [Compound 9, N^2-{4-[(3-Cyclohexylamino-propylamino)-methyl]-benzyl}-6-methoxy-N^4-piperidin-4-yl-quinazoline-2,4-diamine] | 8 ± 1.7 µM | 169 | 8.4 ± 1 µM | 177 | fold increase in CXCR4 binding affinity compared to compound 4 (hCXCR4): 4−5 fold |
| COc1ccc2c(NC3CCNCC3)nc(NCc3ccc(CNCCCNC4CCCCC4)cc3)nc2c1 [Compound 10, N^2-{4-[(3-Cyclohexylamino-propylamino)-methyl]-benzyl}-7-methoxy-N^4-piperidin-4-yl-quinazoline-2,4-diamine] | 1.6 ± 0.6 µM | 186 | 10.8 ± 3.3 µM | 1260 | fold increase in CXCR4 binding affinity compared to compound 4 (hCXCR4): 4−5 fold |
| COc1cc2nc(NCc3ccc(CNCCCNC4CCCCC4)cc3)nc(NC3CCNCC3)c2cc1OC [Compound 11, N^2-{4-[(3-Cyclohexylamino-propylamino)-methyl]-benzyl}-6,7-dimethoxy-N^4-piperidin-4-yl-quinazoline-2,4-diamine] | 17.5 ± 2.4 µM | 806 | 23.1 ± 7 µM | 1060 | – |
| COc1ccc2nc(NCc3ccc(CNCCCNC4CCCCCC4)cc3)nc(NC3CCNCC3)c2c1 [Compound 12, N^2-{4-[(3-Cycloheptylamino-propylamino)-methyl]-benzyl}-6-methoxy-N^4-piperidin-4-yl-quinazoline-2,4-diamine] | 6.5 ± 1.1 µM | 153 | 21.7 ± 7 µM | 509 | fold increase in CXCR4 binding affinity compared to compound 4 (hCXCR4): 4−5 fold |
| COc1ccc2c(NC3CCNCC3)nc(NCc3ccc(CNCCCNC4CCCCCC4)cc3)nc2c1 [Compound 13, N^2-{4-[(3-Cycloheptylamino-propylamino)-methyl]-benzyl}-7-methoxy-N^4-piperidin-4-yl-quinazoline-2,4-diamine] | 6.1 ± 1.1 µM | 134 | 10.8 ± 0.8 µM | 238 | fold increase in CXCR4 binding affinity compared to compound 4 (hCXCR4): 4−5 fold |
| COc1cc2nc(NCc3ccc(CNCCCNC4CCCCCC4)cc3)nc(NC3CCNCC3)c2cc1OC [Compound 14, N^2-{4-[(3-Cycloheptylamino-propylamino)-methyl]-benzyl}-6,7-methoxy-N^4-piperidin-4-yl-quinazoline-2,4-diamine] | – | – | – | – | Selective Index CC50/EC50 CEM (CEM cells): 376; CC50 (CEM cells): 18.2 ± 4.5 µM; Selective Index CC50/EC50 TZM-bl (TZM-bl cells): 399; CC50 (TZM-bl cells): 19.3 ± 0.88 µM; EC50 (HIV-1 IIIB; [3]): 0.0484 ± 0.0034 µM |
| COc1ccc2nc(NCc3ccc(CNCCCN4CCCCC4)cc3)nc(NC3CCNCC3)c2c1 [Compound 15, 6-Methoxy-N^4-piperidin-4-yl-N^2-{4-[(3-piperidin-1-yl-propy-lamino)-methyl]-benzyl}-quinazoline-2,4-diamine] | – | – | – | – | Selective Index CC50/EC50 CEM (CEM cells): 196; CC50 (CEM cells): 18.4 ± 5.5 µM; Selective Index CC50/EC50 TZM-bl (TZM-bl cells): 261; CC50 (TZM-bl cells): 24.5 ± 2.5 µM; EC50 (HIV-1 IIIB; [3]): 0.0939 ± 0.0147 µM |
| COc1ccc2c(NC3CCNCC3)nc(NCc3ccc(CNCCCN4CCCCC4)cc3)nc2c1 [Compound 16, 7-Methoxy-N^4-piperidin-4-yl-N^2-{4-[(3-piperidin-1-yl-propy-lamino)-methyl]-benzyl}-quinazoline-2,4-diamine] | – | – | – | – | Selective Index CC50/EC50 CEM (CEM cells): 511; CC50 (CEM cells): 13.8 ± 1.9 µM; Selective Index CC50/EC50 TZM-bl (TZM-bl cells): 1193; CC50 (TZM-bl cells): 32.2 ± 0.2 µM; EC50 (HIV-1 IIIB; [3]): 0.027 ± 0.0042 µM |
| COc1cc2nc(NCc3ccc(CNCCCN4CCCCC4)cc3)nc(NC3CCNCC3)c2cc1OC [Compound 17, 6,7-Dimethoxy-N^4-piperidin-4-yl-N^2-{4-[(3-piperidin-1-yl-propylamino)-methyl]-benzyl}-quinazoline-2,4-diamine] | 17.6 ± 3 µM | 672 | 28.1 ± 1.5 µM | 1070 | – |
| c1nc2c(NCc3ccc(CNCCCNC4CCCCC4)cc3)nc(N3CCNCC3)nc2[nH]1 [Compound 18, N-Cyclohexyl-N′-{4-[(2-piperazin-1-yl-9H-purin-6-ylamino)-methyl]-benzyl}-propane-1,3-diamine] | > 50 µM | > 25000 | > 50 µM | > 25000 | – |
| Cn1cnc2c(NCc3ccc(CNCCCNC4CCCCC4)cc3)nc(N3CCNCC3)nc21 [Compound 19, N-Cyclohexyl-N′-{4-[(9-methyl-2-piperazin-1-yl-9H-purin-6-ylamino)-methyl]-benzyl}-propane-1,3-diamine] | 20.2 ± 1.5 µM | 5940 | 18.6 ± 2 µM | 5470 | fold decrease in CXCR4 binding affinity compared to compound 18 (hCXCR4): 4−5 fold |
| CN1CCN(c2nc(NCc3ccc(CNCCCNC4CCCCC4)cc3)c3ncn(C)c3n2)CC1 [Compound 20, N-Cyclohexyl-N′-(4-{[9-methyl-2-(4-methyl-piperazin-1-yl)-9H-purin-6-ylamino]-methyl}-benzyl)-propane-1,3-diamine] | 13.8 ± 1.8 µM | 2120 | 11.2 ± 2.1 µM | 1720 | fold decrease in CXCR4 binding affinity compared to compound 18 (hCXCR4): 4−5 fold |
| c1nc2c(NCc3ccc(CNCCCNC4CCCCC4)cc3)nc(N3CCC(C4CCNCC4)CC3)nc2[nH]1 [Compound 21, N-{4-[(2-[4,4′]Bipiperidinyl-1-yl-9H-purin-6-ylamino)-methyl]-benzyl}-N′-cyclohexyl-propane-1,3-diamine] | > 50 µM | > 593 | > 50 µM | > 593 | fold decrease in CXCR4 binding affinity compared to compound 18 (hCXCR4): 2−3 fold |
| c1nc2c(NCc3ccc(CNCCCNC4CCCCC4)cn3)nc(N3CCNCC3)nc2[nH]1 [Compound 22, N-Cyclohexyl-N′-{6-[(2-piperazin-1-yl-9H-purin-6-ylamino)-methyl]-pyridin-3-ylmethyl}-propane-1,3-diamine] | > 50 µM | > 11900 | > 50 µM | > 11900 | fold decrease in CXCR4 binding affinity compared to compound 18 (hCXCR4): 2 fold |
| c1nc2c(NCCc3ccc(CNCCCNC4CCCCC4)cc3)nc(N3CCNCC3)nc2[nH]1 [Compound 23, N-Cyclohexyl-N′-{4-[2-(2-piperazin-1-yl-9H-purin-6-ylami-no)-ethyl]-benzyl}-propane-1,3-diamine] | – | – | – | – | fold decrease in CXCR4 binding affinity compared to compound 18 (hCXCR4): around 2 fold; Selective Index CC50/EC50 CEM (CEM cells): 15065; CC50 (CEM cells): 46.7 ± 3.2 µM; Selective Index CC50/EC50 TZM-bl (TZM-bl cells): >16129; CC50 (TZM-bl cells): > 50 µM; EC50 (HIV-1 IIIB; [3]): 0.0031 ± 0.0007 µM |
| c1cc(CNCCCNC2CCCCC2)nc(CNc2nc(N3CCNCC3)nc3[nH]cnc23)c1 [Compound 26, N-Cyclohexyl-N′-{6-[(2-piperazin-1-yl-9H-purin-6-ylamino)-methyl]-pyridin-2-ylmethyl}-propane-1,3-diamine] | > 50 µM | > 20000 | > 50 µM | > 20000 | fold decrease in CXCR4 binding compared to compound 25 (hCXCR4): 4−10 fold |
| c1nc2c(NCc3cncc(CNCCCNC4CCCCC4)c3)nc(N3CCNCC3)nc2[nH]1 [Compound 27, N-Cyclohexyl-N′-{5-[(2-piperazin-1-yl-9H-purin-6-ylamino)-methyl]-pyridin-3-ylmethyl}-propane-1,3-diamine] | > 50 µM | > 8770 | > 50 µM | > 8770 | fold decrease in CXCR4 binding compared to compound 25 (hCXCR4): 4−10 fold |
| CC1(C)CN2C(CSC(=NC3CCCCC3)NC3CCCCC3)=CSC2=N1 [IT1t, reference compound] | – | – | – | – | EC50 (HIV-1 IIIB; [3]): > 0.07 µM |

— article PMC4823997 (Journal of medicinal chemistry, 2015)
